Test results from patent publication US5616563A, “Glutathione N-hydroxycarbamoyl thioesters and method of inhibiting neoplastic growth” (University of Maryland Baltimore Campus, priority 1994, dated 1997).

Key:
[1] = tested on: human erythrocytes; assay: Erythrocyte uptake of 35S-labeled compounds
Description: In order to test the ability of human erythrocytes to take up the above enediol and its ethyl ester derivative, suspensions of washed human erythrocytes were separately incubated with [^35 S] GSH, [^35 S]S-(N-hydroxy N-methylcarbamoyl) glutathione, and with [^35 S] S-(N-hydroxy N-methylcarbamoyl) glutathione[glycyl]-O-ethyl ester. The tests were conducted with 50:50 (v:v) erythrocytes in PBS buffer at 37° C. in the presence of 8.5 mM extracellular [^35 S] labeled compounds.

[2] = target: bovine liver glyoxalase II (Bos taurus, UniProt Q3B7M2); assay: Substrate and inhibition studies with bovine liver glyoxalase II; conditions: for Vm (rel.): relative to Vm for S-D-lactoylglutathione
Description: The standard errors for Vm and Km were obtained by analysis of the initial rate data using the HYPER program of Cleland.
^a HEPES buffer (100 mM, pH 7.4), 25° C.
^b Listed values are relative to Vm for SD-lactoylglutathione.
^c Inhibition constants obtained from using the enediol analogs as

[3] = tested on: Human Leukemia 60 (HL60) cells; assay: Growth inhibition and kill of human leukemia 60 cells; type: cell-based; conditions: HL60, 72 hr. incubation; for IC50: Homo sapiens, HL-60, read-out: GI (concentration for 50% cell growth inhibition)
Description: The observation that compounds 2 and 6(c) inhibit tumor cell growth, but were not strongly cytotoxic to tumor cells at the concentrations tested, prompted the synthesis of diethyl esters of compounds 6(a), 6(b), and 6(c). These derivatives were then tested with human leukemia cells (HL60 cells) grown in RPMI/fetal calf serum medium at 37° C.
^c Concentration for 50% cell kill.

[4] = of substituent R; cited from earlier work
[5] = tested on: Renal Cancer (ACHN); assay: NCI tumor cell growth inhibition, renal cancer ACHN
Description: (§1) ^a Concentration for 50% cell growth inhibition versus nodrug
(§2) ^b Concentration for total cell growth inhibition versus nodrug

[6] = tested on: Melanoma (UACC-62); assay: NCI tumor cell growth inhibition, melanoma UACC-62
Description: as §1, §2

[7] = tested on: Non-Small Cell Lung Cancer (HOP-18); assay: NCI tumor cell growth inhibition, non-small cell lung cancer HOP-18
Description: as §1, §2

[8] = tested on: Colon Cancer (KMZOLZ); assay: NCI tumor cell growth inhibition, colon cancer KMZOLZ
Description: as §1, §2

[9] = tested on: Ovarian Cancer (SK-OV-3); assay: NCI tumor cell growth inhibition, ovarian cancer SK-OV-3
Description: as §1, §2

[10] = tested on: CNS Cancer (SNB-75); assay: NCI tumor cell growth inhibition, CNS cancer SNB-75
Description: as §1, §2

[11] = 0 h, 8.5 mM extracellular, 37° C.
[12] = HEPES buffer (100 mM, pH 7.4), 25° C.
[13] = Homo sapiens, 48 h, read-out: GI (concentration for 50% cell growth inhibition)
[14] = Homo sapiens, read-out: inhibition of cell growth
[15] = Homo sapiens, UACC-62, read-out: inhibition of cell growth
[16] = Homo sapiens, SK-OV-3, read-out: inhibition of cell growth

## N[C@@H](CCC(=O)N[C@@H](C[35SH])C(=O)NCC(=O)O)C(=O)O [[^35 S] GSH, reference compound]
[1]; 0 h
  Extracellular Total 35S species: 8.48 mM
  Extracellular [35S] GSH: 7.95 mM
  Extracellular [35S] GSSG: 0.43 mM
[1]; [11]
  Intracellular Total 35S species: ~ 0 mM
[1]; 6 h
  Extracellular Total 35S species: 8.56 mM
  Extracellular [35S] GSH: 7.90 mM
  Extracellular [35S] GSSG: 0.53 mM
  Intracellular Total 35S species: 0.04 mM
  Intracellular [35S] GSH: 0.02 mM
  Intracellular [35S] GSSG: 0.02 mM
[1]; 12 h
  Extracellular Total 35S species: 8.61 mM
  Intracellular Total 35S species: 0.05 mM
[1]; 24 h
  Extracellular Total 35S species: 8.38 mM
  Intracellular Total 35S species: 0.13 mM
[1]; 36 h
  Extracellular Total 35S species: 8.37 mM
  Intracellular Total 35S species: 0.28 mM
[1]; 48 h
  Extracellular Total 35S species: 8.23 mM
  Extracellular [35S] GSH: 5.31 mM
  Extracellular [35S] GSSG: 2.49 mM
  Intracellular Total 35S species: 0.48 mM
  Intracellular [35S] GSH: 0.10 mM
  Intracellular [35S] GSSG: 0.27 mM

## CCOC(=O)CNC(=O)[C@H](CSC(=O)N(C)O)NC(=O)CC[C@H](N)C(=O)O [[^35 S] .box-solid., [^35 S] S-(N-Hydroxy N-Methyl Carbamoyl) Glutathione [Glycyl]-O-Ethyl Ester]
[1]
  diffusion rate into erythrocytes relative to [35S] 2: ~ 2 fold
[1]; 0 h
  Extracellular Total 35S species: 8.54 mM
  Extracellular [35S] S-(N-hydroxy N-methylcarbamoyl) glutathione: 1.27 mM
  Extracellular [35S] S-(N-hydroxy N-methylcarbamoyl) glutathione glycyl-O-ethyl ester: 7.22 mM
[1]; [11]
  Intracellular Total 35S species: ~ 0.01 mM
[1]; 0 h, listed as [^35 S] 2(Et)
  Extracellular [35S] S-(N-hydroxy N-methylcarbamoyl) glutathione: 1.3 mM
[1]; 6 h
  Extracellular Total 35S species: 8.60 mM
  Extracellular [35S] S-(N-hydroxy N-methylcarbamoyl) glutathione: 1.27 mM
  Extracellular [35S] S-(N-hydroxy N-methylcarbamoyl) glutathione glycyl-O-ethyl ester: 7.17 mM
  Intracellular Total 35S species: 0.05 mM
  Intracellular [35S] S-(N-hydroxy N-methylcarbamoyl) glutathione: ~ 0.01 mM
  Intracellular [35S] S-(N-hydroxy N-methylcarbamoyl) glutathione glycyl-O-ethyl ester: ~ 0.01 mM
[1]; 12 h
  Extracellular Total 35S species: 8.62 mM
  Extracellular [35S] S-(N-hydroxy N-methylcarbamoyl) glutathione: 1.42 mM
  Extracellular [35S] S-(N-hydroxy N-methylcarbamoyl) glutathione glycyl-O-ethyl ester: 7.02 mM
  Intracellular Total 35S species: 0.07 mM
  Intracellular [35S] S-(N-hydroxy N-methylcarbamoyl) glutathione: 0.02 mM
  Intracellular [35S] S-(N-hydroxy N-methylcarbamoyl) glutathione glycyl-O-ethyl ester: 0.03 mM
[1]; 24 h
  Extracellular Total 35S species: 8.49 mM
  Extracellular [35S] S-(N-hydroxy N-methylcarbamoyl) glutathione: 1.65 mM
  Extracellular [35S] S-(N-hydroxy N-methylcarbamoyl) glutathione glycyl-O-ethyl ester: 6.62 mM
  Intracellular Total 35S species: 0.20 mM
  Intracellular [35S] S-(N-hydroxy N-methylcarbamoyl) glutathione: 0.05 mM
  Intracellular [35S] S-(N-hydroxy N-methylcarbamoyl) glutathione glycyl-O-ethyl ester: 0.12 mM
[1]; 36 h
  Extracellular Total 35S species: 8.09 mM
  Extracellular [35S] S-(N-hydroxy N-methylcarbamoyl) glutathione: 1.83 mM
  Extracellular [35S] S-(N-hydroxy N-methylcarbamoyl) glutathione glycyl-O-ethyl ester: 6.01 mM
  Intracellular Total 35S species: 0.45 mM
  Intracellular [35S] S-(N-hydroxy N-methylcarbamoyl) glutathione: 0.14 mM
  Intracellular [35S] S-(N-hydroxy N-methylcarbamoyl) glutathione glycyl-O-ethyl ester: 0.28 mM
[1]; 48 h
  Extracellular Total 35S species: 7.90 mM
  Extracellular [35S] S-(N-hydroxy N-methylcarbamoyl) glutathione: 1.89 mM
  Extracellular [35S] S-(N-hydroxy N-methylcarbamoyl) glutathione glycyl-O-ethyl ester: 5.70 mM
  Intracellular Total 35S species: 0.67 mM
  Intracellular [35S] S-(N-hydroxy N-methylcarbamoyl) glutathione: 0.24 mM
  Intracellular [35S] S-(N-hydroxy N-methylcarbamoyl) glutathione glycyl-O-ethyl ester: 0.39 mM
  final intracellular [35S] 2 relative to that expected from import of contaminating [35S] 2: about 3 fold
[1]; 48 h, listed as [^35 S] 2(Et)
  Extracellular [35S] S-(N-hydroxy N-methylcarbamoyl) glutathione: 1.9 mM

## N[C@@H](CCC(=O)N[C@@H](CSC(=O)N(O)c1ccc(Cl)cc1)C(=O)NCC(=O)O)C(=O)O [Compound 6b, S-(N-Hydroxy-N-4-chlorophenylcarbamoyl) glutathione]
[2]
  Ki: 3.4 ± 0.8 µM
[2]; [12]
  Vm (rel.): (1.5 ± 0.3) × 10^-5
[3]
  LC50 (concentration for 50% cell kill): > 1000 µM
  TGI (concentration for total cell growth inhibition): > 1000 µM
  IC50: ~100 µM
[4]
  π (Hansch hydrophobicity constant): 3.04

## N[C@@H](CCC(=O)N[C@@H](CSC(=O)N(O)c1ccc(Br)cc1)C(=O)NCC(=O)O)C(=O)O [Compound 6c, S-(N-Hydroxy-N-4-bromophenylcarbamoyl) glutathione]
[5]; 48 hrs. incubation
  LC50 (concentration for 50% cell kill): > 1000 µM
  TGI (concentration for total cell growth inhibition): ~ 200 μM
[5]; [13]
  IC50: 25 µM
[5]; [14]
  inhibition at 10 µM: 30%
  inhibition at 100 µM: ~95%
[2]
  Ki: 1.2 ± 0.4 µM
[2]; [12]
  Vm (rel.): (2.1 ± 0.4) × 10^-5
[6]; Homo sapiens, UACC-62, 48 h, read-out: GI (concentration for 50% cell growth inhibition)
  IC50: 126 µM
[6]; [15]
  inhibition at 10 µM: ~20%
  inhibition at 100 µM: 50%
[6]; UACC-62, 10^-6 M and lower concentrations
  inhibition of cell growth: minimal inhibition
[6]; UACC-62, 48 hrs. incubation
  LC50 (concentration for 50% cell kill): > 1000 µM
  TGI (concentration for total cell growth inhibition): > 1000 µM
[7]; HOP-18, 10^-6 to 10^-5 M
  cell growth inhibition: about 15%
[7]; HOP-18, 48 hrs. incubation
  LC50 (concentration for 50% cell kill): > 1000 µM
  TGI (concentration for total cell growth inhibition): ~ 250 μM
[7]; Homo sapiens, HOP-18, 48 h, read-out: GI (concentration for 50% cell growth inhibition)
  IC50: 40 µM
[7]; Homo sapiens, HOP-18, read-out: cell growth inhibition
  inhibition at 100 µM: ~80%
[8]; [13]
  IC50: 40 µM
[8]; [14]
  inhibition at 100 µM: 80%
[8]; KMZOL2, 10^-6 and 10^-5
  inhibition of cell growth: about 10%
[8]; KMZOLZ, 48 hrs. incubation
  LC50 (concentration for 50% cell kill): > 1000 µM
  TGI (concentration for total cell growth inhibition): ~ 320 μM
[3]
  LC50 (concentration for 50% cell kill): ~ 300 μM
  TGI (concentration for total cell growth inhibition): 63 µM
  IC50: 20 µM
[9]; Homo sapiens, SK-OV-3, 48 h, read-out: GI (concentration for 50% cell growth inhibition)
  IC50: 32 µM
[9]; [16]
  inhibition at 1 µM: ~40%
  inhibition at 100 µM: > 80%
[9]; SK-OV-3, 10^-5
  inhibition of cell growth: about 30%
[9]; SK-OV-3, 48 hrs. incubation
  LC50 (concentration for 50% cell kill): > 1000 µM
  TGI (concentration for total cell growth inhibition): ~ 250 μM
[4]
  π (Hansch hydrophobicity constant): 3.25
[10]; CNS human cancer cells, 10^-6 M and 10^-5 M
  inhibition of cell growth: about 20%
[10]; Homo sapiens, SNB-75, 48 h, read-out: GI (concentration for 50% cell growth inhibition)
  IC50: 63 µM
[10]; Homo sapiens, SNB-75, read-out: inhibition of cell growth
  inhibition at 100 µM: 60%
[10]; SNB-75, 48 hrs. incubation
  LC50 (concentration for 50% cell kill): > 1000 µM
  TGI (concentration for total cell growth inhibition): ~ 1000 μM

## CN(O)C(=O)SC[C@H](NC(=O)CC[C@H](N)C(=O)O)C(=O)NCC(=O)O [[^35 S] .circle-solid., [^35 S] S-(N-Hydroxy N-Methylcarbamoyl) Glutathione]
[1]; 0 h
  Extracellular Total 35S species: 8.44 mM
  Extracellular [35S] GSH + [35S] GSSG: ~ 0.01 mM
  Extracellular [35S] S-(N-hydroxy N-methylcarbamoyl) glutathione: 8.20 mM
[1]; [11]
  Intracellular Total 35S species: ~ 0 mM
[1]; 6 h
  Extracellular Total 35S species: 8.57 mM
  Extracellular [35S] GSH + [35S] GSSG: 0.15 mM
  Extracellular [35S] S-(N-hydroxy N-methylcarbamoyl) glutathione: 8.32 mM
  Intracellular Total 35S species: 0.02 mM
[1]; 12 h
  Extracellular Total 35S species: 8.67 mM
  Extracellular [35S] GSH + [35S] GSSG: 0.14 mM
  Extracellular [35S] S-(N-hydroxy N-methylcarbamoyl) glutathione: 8.39 mM
  Intracellular Total 35S species: 0.03 mM
  Intracellular [35S] GSH + [35S] GSSG: ~ 0.01 mM
  Intracellular [35S] S-(N-hydroxy N-methylcarbamoyl) glutathione: ~ 0.01 mM
[1]; 24 h
  Extracellular Total 35S species: 8.24 mM
  Extracellular [35S] GSH + [35S] GSSG: 0.14 mM
  Extracellular [35S] S-(N-hydroxy N-methylcarbamoyl) glutathione: 7.96 mM
  Intracellular Total 35S species: 0.12 mM
  Intracellular [35S] GSH + [35S] GSSG: 0.03 mM
  Intracellular [35S] S-(N-hydroxy N-methylcarbamoyl) glutathione: 0.08 mM
[1]; 36 h
  Extracellular Total 35S species: 8.24 mM
  Extracellular [35S] GSH + [35S] GSSG: 0.13 mM
  Extracellular [35S] S-(N-hydroxy N-methylcarbamoyl) glutathione: 7.96 mM
  Intracellular Total 35S species: 0.31 mM
  Intracellular [35S] GSH + [35S] GSSG: 0.04 mM
  Intracellular [35S] S-(N-hydroxy N-methylcarbamoyl) glutathione: 0.26 mM
[1]; 48 h
  Extracellular Total 35S species: 8.50 mM
  Extracellular [35S] GSH + [35S] GSSG: 0.14 mM
  Extracellular [35S] S-(N-hydroxy N-methylcarbamoyl) glutathione: 8.19 mM
  Intracellular Total 35S species: 0.44 mM
  Intracellular [35S] GSH + [35S] GSSG: 0.04 mM
  Intracellular [35S] S-(N-hydroxy N-methylcarbamoyl) glutathione: 0.37 mM

## N[C@@H](CCC(=O)N[C@@H](CSC(=O)N(O)c1ccccc1)C(=O)NCC(=O)O)C(=O)O [Compound 6a, S-(N-Hydroxy N-Phenylcarbamoyl) Glutathione]
[2]
  Ki: 11 ± 1.2 µM
[2]; as substrate, HEPES buffer (100 mM, pH 7.4), 25° C.
  Km: 13 ± 2 µM
[2]; [12]
  Vm (rel.): (0.46 ± 0.01) × 10^-5
[3]
  LC50 (concentration for 50% cell kill): > 1000 µM
  TGI (concentration for total cell growth inhibition): > 1000 µM
  IC50: ~100 µM
[4]
  π (Hansch hydrophobicity constant): 2.13
